The source of these data is ChEMBL document CHEMBL1201862, “PubChem BioAssay data set” (2004).

Test systems include PC-3; MDA-N; ACHN; Malme-3M; NCI-H522; CCRF-CEM; SR; Hs-578T; UO-31; DU-145; SF-539; UACC-257; UACC-62; SF-295; K562; U-251; OVCAR-8; NCI-H226; CAKI-1.
Experiment in all cases: NCI anticancer screen, dose series, 48 h

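Values below derive from 48-hour exposures of cells grown in 96-well plates, with endpoints linearly interpolated between the two concentrations bracketing the appropriate inhibition level. The concentration for 50% growth inhibition is given as GI50.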 Active and inactive are the calls of the source. No stated cut-off is given here; in the data, active = GI50 up to about 1.1 µM and inactive = higher.

For the molecule `Cc1cc(S(=O)(=O)Nc2nnc3ccccn23)c(S)cc1Cl`, the GI50 with PC-3 was > 100 µM (inactive); in the assay on MDA-N, > 100 µM (inactive); in the assay on ACHN, > 100 µM (inactive); in the assay with Malme-3M, > 100 µM (inactive); in the assay on NCI-H522, > 100 µM (inactive); in the assay on CCRF-CEM, > 10 µM (inactive). Besides, the GI50 in the assay on SR, with Hs-578T, in the assay on UO-31, in the assay with DU-145, with SF-539 and in the assay on UACC-257 was > 100 µM (inactive) in each case. The GI50 in the assay on UACC-62 is > 100 µM (inactive); in the assay on SF-295 it was 25.9 µM (inactive); with K562 it was > 100 µM (inactive); in the assay with U-251, 47.9 µM (inactive); in the assay with OVCAR-8, > 100 µM (inactive).
In the case of `O=c1c2c(nc3[nH]ccn13)CCC2`, the GI50 in the assay with PC-3, with MDA-N, in the assay on ACHN, in the assay on Malme-3M, in the assay on CCRF-CEM and in the assay with NCI-H226 was > 10 µM (inactive) in each case. Moreover, the GI50 in the assay with SR, in the assay with Hs-578T, with UO-31, in the assay with CAKI-1, in the assay on DU-145 and in the assay with SF-539 was > 10 µM (inactive) in each case. In addition, the GI50 with UACC-257, in the assay with UACC-62, in the assay on SF-295, in the assay with K562, with U-251 and in the assay with OVCAR-8 was > 10 µM (inactive) throughout.
Consider `CC(=O)Nc1ccc2[nH]c(C(=O)N3CC(CCl)c4c3cc([N+](=O)[O-])c3ccccc43)cc2c1` (stereo not given), for which the GI50 in the assay with PC-3 is 1.2 µM (inactive); in the assay with MDA-N it was > 57.4 µM (inactive); in the assay with ACHN, 5.57 µM (inactive); with NCI-H522, 1.14 µM (inactive); with CCRF-CEM it was 0.879 µM (active); in the assay on NCI-H226 it was 9.38 µM (inactive). For the same molecule, the GI50 in the assay on SR is 0.349 µM (active); in the assay on Hs-578T it was 4.26 µM (inactive); with UO-31, 0.805 µM (active); in the assay on CAKI-1, 3.93 µM (inactive); in the assay with DU-145, 2.96 µM (inactive); in the assay on UACC-257 it was > 100 µM (inactive). Further, the GI50 in the assay on UACC-62 was 4.52 µM (inactive); in the assay on SF-295, 7.33 µM (inactive); with K562, 0.601 µM (active); in the assay with U-251, 3.48 µM (inactive); in the assay with OVCAR-8 it was 3.1 µM (inactive).
For `CCOC(=O)/C=C/C1(CCOC(C)=O)CCCCC1`, the GI50 in the assay with PC-3, in the assay with MDA-N, in the assay with ACHN, with NCI-H522, in the assay with CCRF-CEM and with NCI-H226 was > 10 µM (inactive) each time. For the same molecule, the GI50 in the assay with SR, in the assay on Hs-578T, in the assay with UO-31, in the assay on CAKI-1, in the assay on DU-145 and in the assay on SF-539 was > 10 µM (inactive) in each case. Moreover, the GI50 in the assay with UACC-257, with UACC-62, in the assay with SF-295, in the assay on K562, in the assay with U-251 and with OVCAR-8 was > 10 µM (inactive) throughout.
In the case of `CSc1nc(C)c2c(n1)SCC2`, the GI50 in the assay with PC-3, in the assay with MDA-N, in the assay with ACHN, in the assay with Malme-3M, with CCRF-CEM and in the assay on NCI-H226 was > 10 µM (inactive) in each case. Besides, the GI50 is > 10 µM (inactive) in the assay with SR; 2.52 µM (inactive) in the assay on Hs-578T; > 10 µM (inactive) in the assay with UO-31; > 10 µM (inactive) with CAKI-1; > 10 µM (inactive) with DU-145; > 10 µM (inactive) with SF-539. The GI50 with UACC-257, in the assay with UACC-62, in the assay with SF-295, in the assay with K562, in the assay on U-251 and in the assay with OVCAR-8 was > 10 µM (inactive) throughout.
For the molecule `C=CCn1c(-c2ccc(Cl)cc2)cs/c1=N\c1ccccc1OC`, the GI50 in the assay on PC-3 was 32.7 µM (inactive); with MDA-N, 2.1 µM (inactive); in the assay on ACHN, > 100 µM (inactive); in the assay on Malme-3M, 31.1 µM (inactive); in the assay with CCRF-CEM it was 8.55 µM (inactive); in the assay on NCI-H226, > 64.7 µM (inactive). For the same molecule, the GI50 in the assay with SR is 0.195 µM (active); in the assay with Hs-578T it was > 100 µM (inactive); with UO-31, > 100 µM (inactive); in the assay on CAKI-1, > 45.2 µM (inactive); with DU-145, > 100 µM (inactive); with SF-539, > 76.7 µM (inactive). Further, the GI50 in the assay on UACC-257 was 7.46 µM (inactive); with UACC-62, 10.1 µM (inactive); in the assay on SF-295, 16.6 µM (inactive); in the assay with K562 it was 3.44 µM (inactive); with U-251, > 69.5 µM (inactive); in the assay on OVCAR-8 it was 27 µM (inactive).
Regarding `O=P1(c2ccccc2)C2=CCC=CC2C(c2ccccc2)N1Cc1ccccc1` (stereo not given), the GI50 is 13.4 µM (inactive) in the assay on PC-3; 20.9 µM (inactive) in the assay on MDA-N; 16.7 µM (inactive) in the assay with ACHN; 17.8 µM (inactive) with Malme-3M; 11.4 µM (inactive) in the assay with NCI-H522; 15.5 µM (inactive) with CCRF-CEM. Moreover, the GI50 with SR was 24.2 µM (inactive); in the assay with Hs-578T, 19 µM (inactive); with UO-31, 12.4 µM (inactive); in the assay on CAKI-1, 13.7 µM (inactive); in the assay with DU-145, 17.5 µM (inactive); with SF-539, 17.4 µM (inactive). The GI50 is 20.1 µM (inactive) in the assay on UACC-257; 8.63 µM (inactive) in the assay on UACC-62; 13.5 µM (inactive) with SF-295; 16.1 µM (inactive) in the assay on K562; 14.3 µM (inactive) with U-251; 19.6 µM (inactive) in the assay on OVCAR-8.
`OCc1cc2c(ccc3sc4ccc5sc6ccc7ncccc7c6c5c4c32)s1`: the GI50 was 5.93 µM (inactive) in the assay with PC-3; 10.3 µM (inactive) in the assay on MDA-N; 31.6 µM (inactive) in the assay with ACHN; 11 µM (inactive) in the assay on NCI-H522; 19.7 µM (inactive) in the assay with CCRF-CEM; 30.1 µM (inactive) with NCI-H226. Besides, the GI50 was 10.5 µM (inactive) in the assay on SR; 8.53 µM (inactive) in the assay with Hs-578T; 2.11 µM (inactive) with UO-31; 10.6 µM (inactive) in the assay with CAKI-1; 17.1 µM (inactive) with DU-145; 14.4 µM (inactive) in the assay with SF-539. The GI50 in the assay on UACC-257 was 13.6 µM (inactive); with UACC-62, 7.45 µM (inactive); in the assay on SF-295, 12.5 µM (inactive); in the assay with K562 it was 22.4 µM (inactive); in the assay with U-251, 28.4 µM (inactive); with OVCAR-8 it was 12.1 µM (inactive).
`O=C1OC(c2ccccc2)=N/C1=C\c1ccc([N+](=O)[O-])cc1`: the GI50 in the assay on PC-3 was > 100 µM (inactive); in the assay with MDA-N, > 100 µM (inactive); in the assay on ACHN, 14.3 µM (inactive); with NCI-H522 it was 9.57 µM (inactive); in the assay on CCRF-CEM, 13.8 µM (inactive); with NCI-H226 it was 3.96 µM (inactive). The GI50 in the assay on SR was 2.35 µM (inactive); in the assay with Hs-578T, 24.1 µM (inactive); with UO-31, 50.7 µM (inactive); in the assay on CAKI-1 it was 30.7 µM (inactive); in the assay on DU-145 it was 47.4 µM (inactive); in the assay on SF-539, 9.16 µM (inactive). In addition, the GI50 in the assay with UACC-257 is > 100 µM (inactive); in the assay with UACC-62, 26.5 µM (inactive); in the assay with SF-295, 32.7 µM (inactive); in the assay on K562, > 100 µM (inactive); in the assay on U-251, 19.7 µM (inactive); in the assay on OVCAR-8 it was 11.9 µM (inactive).
Regarding `CC1(C)CC(=O)c2c(nc3c(ccc4ccccc43)c2-c2ccc(NC(=O)CCCCCCCCC(=O)Nc3ccc(-c4c5c(nc6c4ccc4ccccc46)CC(C)(C)CC5=O)cc3)cc2)C1`, the GI50 in the assay with PC-3, in the assay on MDA-N, in the assay on ACHN, with NCI-H522, in the assay on CCRF-CEM and in the assay on NCI-H226 was > 100 µM (inactive) each time. The GI50 in the assay on SR, with Hs-578T, in the assay on UO-31, with CAKI-1, with DU-145 and in the assay with SF-539 was > 100 µM (inactive) each time. Also, the GI50 in the assay on UACC-257, in the assay with SF-295, in the assay on K562, in the assay on U-251 and in the assay with OVCAR-8 was > 100 µM (inactive) in each case.
Regarding `COc1cc(C2SCC(=O)N2c2cc(Cl)c(Cl)cc2Cl)cc(OC)c1OC` (stereo not given), the GI50 was 62.8 µM (inactive) with PC-3; 25.3 µM (inactive) in the assay with MDA-N; 42.3 µM (inactive) in the assay with ACHN; 46 µM (inactive) with NCI-H522; 25.4 µM (inactive) with CCRF-CEM; 63.1 µM (inactive) in the assay on NCI-H226. Also, the GI50 in the assay with SR is 26.4 µM (inactive); in the assay with Hs-578T, 99.8 µM (inactive); in the assay with UO-31, 34.7 µM (inactive); in the assay with CAKI-1, 28.7 µM (inactive); in the assay on DU-145, 41.3 µM (inactive); with SF-539 it was 43.1 µM (inactive). Also, the GI50 with UACC-257 was 36.8 µM (inactive); in the assay on UACC-62 it was 22.2 µM (inactive); in the assay with SF-295 it was 49.8 µM (inactive); with K562, 42 µM (inactive); in the assay with U-251 it was 77.8 µM (inactive); in the assay with OVCAR-8, 66.5 µM (inactive).
